Test results published in patent publication US12060349B2, “Glucosylceramide synthase inhibitors” (Genzyme Corporation, priority 2012, dated 2024).
Where two headings read alike, the source gives them in different places.

Assays:
[1] = molecular target: T1, glucosylceramide synthase (Homo sapiens, UniProt Q16739); test: microsomal assay measuring conversion of ceramide to glucosylceramide by HPLC (GCS IC50); assay type: biochemical; conditions: concentration causing 50% inhibition of glucosylceramide synthase activity
T1 construct: Microsomes were isolated from A375 human melanoma cells; endogenous in cells; host or cells: A375 human melanoma cells (microsomal fraction, 100,000 g pellet)
T1 sequence (Q16739 1-394): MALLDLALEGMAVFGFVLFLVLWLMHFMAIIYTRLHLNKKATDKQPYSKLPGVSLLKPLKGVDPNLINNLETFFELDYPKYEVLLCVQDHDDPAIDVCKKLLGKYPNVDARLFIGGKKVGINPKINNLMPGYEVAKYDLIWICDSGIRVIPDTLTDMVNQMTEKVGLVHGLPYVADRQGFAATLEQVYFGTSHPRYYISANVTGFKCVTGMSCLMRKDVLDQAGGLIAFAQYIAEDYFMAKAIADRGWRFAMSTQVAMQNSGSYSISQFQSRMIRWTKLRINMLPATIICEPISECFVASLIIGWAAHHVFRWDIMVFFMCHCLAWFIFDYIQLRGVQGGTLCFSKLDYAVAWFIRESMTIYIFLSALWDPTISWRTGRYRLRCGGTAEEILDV
Procedure: Inhibition of glucosylceramide synthase activity for certain compounds of the invention were measured with 1) a microsomal assay that directly measures the conversion of ceramide to glucosylceramide by HPLC and 2) second, cell based, phenotypic assay that monitors cell surface expression of the downstream lipid GM3 by antibody mediated immunofluorescence. The cell based assay was performed in two different cell types, B16 and C32. Cell viability was also assessed in the second, cell-based assay.
The “Compound Number” in the table corresponds to the compound disclosed in the Example of the same number. The results of the microsomal assay are expressed as “GCS IC50”, which represents the concentration of the compound causing 50% inhibition of glucosylceramide synthase activity. The results of the cell based assays (performed in two different cell systems, i.e. B16 mouse melanoma or C32 human melanoma cells) are expressed as “GM3 B16 IC50” or “GM3 C32 IC50” for the B16 assay and the C32 assay, respectively. These values represent the concentration of the compound causing 50% inhibition of GM3 expression on the cell surface. The results of the viability assays are expressed as “Viability, B16 IC50” or “Viability, C32 IC50”, respectively. These values represent the concentration of the compound causing 50% cell death. Values greater than 10 represent a lack of cell death.

[2] = system: GM3 expression on the cell surface, B16 mouse melanoma cells; test: cell based phenotypic assay, cell surface GM3 by antibody mediated immunofluorescence, B16 (GM3 B16 IC50); conditions: Mus musculus, 50% inhibition of GM3 expression on the cell surface
Procedure: (§1) The cell based assay was performed in two different cell types, B16 and C32. Cell viability was also assessed in the second, cell-based assay.
(§2) The “Compound Number” in the table corresponds to the compound disclosed in the Example of the same number. […] The results of the cell based assays (performed in two different cell systems, i.e. B16 mouse melanoma or C32 human melanoma cells) are expressed as “GM3 B16 IC50” or “GM3 C32 IC50” for the B16 assay and the C32 assay, respectively. […] The results of the viability assays are expressed as “Viability, B16 IC50” or “Viability, C32 IC50”, respectively. These values represent the concentration of the compound causing 50% cell death. Values greater than 10 represent a lack of cell death.

[3] = system: GM3 expression on the cell surface, C32 human melanoma cells; test: cell based phenotypic assay, cell surface GM3 by antibody mediated immunofluorescence, C32 (GM3 C32 IC50); conditions: Homo sapiens, 50% inhibition of GM3 expression on the cell surface
Procedure: as §1, §2

B16 mouse melanoma cells = test: cell viability in the B16 cell-based assay (Viability, B16 IC50)
Procedure: as §1, §2

C32 human melanoma cells = test: cell viability in the C32 cell-based assay (Viability, C32 IC50); conditions: concentration causing 50% cell death, values greater than 10 represent a lack of cell death
Procedure: as §1, §2

[4] = read-out: GM3 B16 IC50, B16 mouse melanoma cells
[5] = read-out: GM3 C32 IC50, C32 human melanoma cells
[6] = Mus musculus, B16, read-out: Viability, B16 IC50
[7] = Homo sapiens, C32, read-out: Viability, C32 IC50, C32 cells
[8] = B16 mouse melanoma cells, read-out: GM3 B16 IC50
[9] = C32 human melanoma cells, read-out: GM3 C32 IC50
[10] = Mus musculus, B16, B16 cells, concentration causing 50% cell death, values greater than 10 represent a lack of cell death, read-out: Viability, B16 IC50
[11] = Homo sapiens, C32, C32 cells, read-out: Viability, C32 IC50
[12] = read-out: Viability, C32 IC50, C32 cells

| IC50 [2, 8] [nM] | IC50 [3, 9] [nM] | SMILES | IC50 [1] [nM] | IC50 [2, 4] [nM] | IC50 [3, 5] [nM] | IC50 (B16 mouse melanoma cells; [6]) [nM] | IC50 (C32 human melanoma cells; [7]) [nM] | IC50 (B16 mouse melanoma cells; [10]) [nM] | IC50 (C32 human melanoma cells; [11]) [nM] | IC50 (B16 mouse melanoma cells; read-out: Viability, B16 IC50, B16 cells, concentration causing 50% cell death, values greater than 10 represent a lack of cell death) [nM] | IC50 (C32 human melanoma cells; [12]) [nM] |
| --- | --- | --- | --- | --- | --- | --- | --- | --- | --- | --- | --- |
| – | – | COCCCOc1ccc(-c2cccc(C(C)(C)NC(=O)OC3CN4CCC3CC4)c2)nn1 (stereo not drawn) [Example 312, Quinuclidin-3-yl (2-(3-(6-(3-methoxypropoxy)pyridazin-3-yl)phenyl)propan-2-yl)carbamate] | 1660 | 1340 | 103 | ≥ 10000 | 1000 | – | – | – | – |
| 99.3 | 8.26 | COCCOCc1ccc(-c2ccc(C3(NC(=O)OC4CCN5CCC4CC5)CC3)cc2)cc1 (stereo not drawn) [Example 204, 1-Azabicyclo[3.2.2]nonan-4-yl (1-(4′-((2-methoxyethoxy)methyl)-[1,1′-biphenyl]-4-yl)cyclopropyl)carbamate] | 43.3 | – | – | – | – | ≥ 10000 | 1470 | – | – |
| 4910 | 118 | COCCCOc1ccc(-c2cccc(C(C)(C)NC(=O)N3CCN4CCC3CC4)c2)nn1 [Example 314, N-(2-(3-(6-(3-Methoxypropoxy)pyridazin-3-yl)phenyl)propan-2-yl)-1,4-diazabicyclo[3.2.2]nonane-4-carboxamide] | 2630 | – | – | – | – | ≥ 10000 | ≥ 10000 | – | – |
| 365 | 77.4 | CC(C)(NC(=O)N1CCN2CCC1CC2)c1ccc(-c2ccc(OCCCn3ccnn3)cc2)cc1 [Example 188, N-(2-(4′-(3-(1H-1,2,3-Triazol-1-yl)propoxy)-[1,1′-biphenyl]-4-yl)propan-2-yl)-1,4-diazabicyclo[3.2.2]nonane-4-carboxamide] | 597 | – | – | – | – | ≥ 10000 | 1000 | – | – |
| – | – | O=C(OC1CN2CCC1CC2)N1CCN(c2cccc(-c3ccccc3)c2)CC1 (stereo not drawn) [Example 18, Quinuclidin-3-yl 4-([1,1′-biphenyl]-3-yl)piperazine-1-carboxylate] | 551 | 2040 | 563 | – | – | – | – | 8360 | ≥ 10000 |
| 192 | 3.67 | CC(C)(NC(=O)OC1CCN2CCC1CC2)c1ccc(Oc2ccc(C(=O)N3CCCCC3)cc2)cc1 (stereo not drawn) [Example 299, 1-Aza-bicyclo[3.2.2]nonan-4-yl 2-(4-(4-(piperidine-1-carbonyl)phenoxy)phenyl) propan-2-ylcarbamate] | 15.4 | – | – | – | – | ≥ 10000 | 1000 | – | – |
| 47.9 | 2.53 | COCCCc1ccc(-c2ccc(C3(NC(=O)OC4CCN5CCC4CC5)CC3)cc2)cc1 (stereo not drawn) [Example 212, 1-Azabicyclo[3.2.2]nonan-4-yl (1-(4′-(3-methoxypropyl)-[1,1′-biphenyl]-4-yl)cyclopropyl)carbamate] | 3.85 | – | – | – | – | 6360 | ≥ 10000 | – | – |
| – | – | CC(C)(NC(=O)OC1CN2CCC1CC2)c1ccc(-c2ccc(OCCn3ccnn3)cc2)cc1 (stereo not drawn) [Example 182, Quinuclidin-3-yl (2-(4′-(2-(1H-1,2,3-triazol-1-yl)ethoxy)-[1,1′-biphenyl]-4-yl)propan-2-yl)carbamate] | 43.1 | 388 | 13.1 | 3160 | 1000 | – | – | – | – |
| – | – | CCOc1ccc(-c2cccc(C(C)(C)NC(=O)OC3CN4CCC3CC4)c2)nn1 (stereo not drawn) [Example 318, Quinuclidin-3-yl (2-(3-(6-ethoxypyridazin-3-yl)phenyl)propan-2-yl)carbamate] | 1460 | 635 | 69.9 | – | – | – | – | – | 1000 |

| SMILES | IC50 [2, 8] [nM] | IC50 [3, 9] [nM] | IC50 [1] [nM] | IC50 [2, 4] [nM] | IC50 [3, 5] [nM] | IC50 (B16 mouse melanoma cells; [6]) [nM] | IC50 (C32 human melanoma cells; [7]) [nM] | IC50 (B16 mouse melanoma cells; [10]) [nM] | IC50 (C32 human melanoma cells; [11]) [nM] | IC50 (B16 mouse melanoma cells; read-out: Viability, B16 IC50, B16 cells, concentration causing 50% cell death, values greater than 10 represent a lack of cell death) [nM] | IC50 (C32 human melanoma cells; [12]) [nM] |
| --- | --- | --- | --- | --- | --- | --- | --- | --- | --- | --- | --- |
| CC(C)(NC(=O)NC1(C)CN2CCC1CC2)c1ccc(-c2ccc(OCCn3ccnn3)cc2)cc1 (stereo not drawn) [Example 183, 1-(2-(4′-(2-(1H-1,2,3-Triazol-1-yl)ethoxy)-[1,1′-biphenyl]-4-yl)propan-2-yl)-3-(3-methylquinuclidin-3-yl)urea] | 969 | 10.2 | 31.6 | – | – | – | – | 5620 | 2510 | – | – |
| CC1(NC(=O)C2(F)CCN(c3ncc(C#N)c(Oc4ccc(F)cc4)n3)CC2)CN2CCC1CC2 (stereo not drawn) [Example 122, 1-(5-Cyano-4-(4-fluorophenoxy)pyrimidin-2-yl)-4-fluoro-N-(3-methylquinuclidin-3-yl)piperidine-4-carboxamide] | 112 | 0.639 | 4.41 | – | – | – | – | ≥ 10000 | 316 | – | – |
